≈ marks a conversion by molar mass, not a printed value. Like-named read-outs stand apart in the source and are kept apart here.
Legend:
Bovine albumin = Bovine albumin (Bos taurus, UniProt P02769); experiment: Protein binding by isothermal titration microcalorimetry
Method: (§3) Integrated heat effects, after correction for heats of dilution, were analyzed by non-linear regression using a simple single-site binding model with the standard Microcal ORIGIN software package. Raw data (μcal/sec) for each injection were integrated to give the total heat effect per addition, then divided by amount of injectant to give kcal/mole of injectant. The same integration was applied for control dilution effects, and this was subtracted from the actual titration data. This provided a differential of the binding curve in which the extent of binding is proportional to the total heat liberated (or absorbed). This was then analyzed by non-linear regression methods in terms of various standard binding models.

bacteria = experiment: Minimum bactericidal concentration; format: cell-based; details: 24 h, kill at least 99% of bacteria over 24 hour in vitro; in plasma
Source text: The amount of dalbavancin administered may be any of the dosages disclosed herein.

[1] = SSTI trial: adverse events; format: in vivo, human
Method: (§1) This randomized, controlled study evaluated the safety and efficacy of two dose regimens of dalbavancin.
Each patient who received at least one dose of study drug (ITT population) was evaluated for drug safety through monitoring of adverse events (AE), including abnormal clinical laboratory test results and vital signs. AE were rated by the investigator as to their severity (mild, moderate, severe, life-threatening), and by the relationship to the study drug (not related, unlikely related, possibly related, or probably related).

S. aureus = experiment: Dalbavancin MIC, baseline isolates of SSTI trial; format: cell-based; details: MITT
[2] = system: skin and soft tissue infections (SSTI); experiment: Phase II trial in deep skin and soft tissue infections: clinical response; format: in vivo, human; details: exploratory subanalysis
Method: as §1
(§2) There were 62 patients randomized into the study, all received at least one dose of study medication. Four study populations were evaluated for safety and efficacy and were defined as follows: The intent-to-treat (I) population included all patients who received at least one dose of study drug (all randomized study subjects).
The effectiveness of the three treatment regimens was determined by assessing the patients' clinical response and the documented or presumed microbiological responses. The primary efficacy endpoint was clinical response at the follow-up visit for the clinically evaluable population. Clinical response, for both EOT and FU visits, was categorized as success (cure or improvement) or failure (including indeterminate results). Patients classified as successes must not have received additional systemic antibacterial treatment for their infection. Failure was defined as persistence of one or more local or systemic signs and symptoms of SSTI such that treatment with new or additional systemic antibacterial agents was required for the SSTI.

Human albumin [3] = molecular target: T1, Human albumin (Homo sapiens, UniProt P02768); experiment: Protein binding by isothermal titration microcalorimetry; details: Apparent binding affinity Ka, Human albumin, pH 7.4, ± SD of fit
T1 sequence (P02768 25-609): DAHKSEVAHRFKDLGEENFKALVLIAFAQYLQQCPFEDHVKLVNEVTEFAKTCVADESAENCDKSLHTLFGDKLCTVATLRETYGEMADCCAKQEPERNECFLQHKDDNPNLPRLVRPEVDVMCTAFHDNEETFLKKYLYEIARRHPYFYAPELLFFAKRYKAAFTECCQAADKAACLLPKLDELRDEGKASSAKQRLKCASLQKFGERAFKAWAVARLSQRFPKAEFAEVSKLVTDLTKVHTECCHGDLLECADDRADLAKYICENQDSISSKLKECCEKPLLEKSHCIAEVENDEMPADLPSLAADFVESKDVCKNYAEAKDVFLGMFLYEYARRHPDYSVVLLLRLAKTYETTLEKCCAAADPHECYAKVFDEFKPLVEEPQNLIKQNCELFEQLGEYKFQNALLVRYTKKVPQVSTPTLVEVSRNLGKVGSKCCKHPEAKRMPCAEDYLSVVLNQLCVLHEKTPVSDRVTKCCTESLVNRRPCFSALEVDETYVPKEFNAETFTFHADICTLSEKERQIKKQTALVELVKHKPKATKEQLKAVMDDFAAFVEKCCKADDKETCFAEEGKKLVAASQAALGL
Method: as §3

[4] = system: methicillin-resistant S. aureus (MRSA); format: in vivo
Method: The effectiveness of the three treatment regimens was determined by assessing the patients' clinical response and the documented or presumed microbiological responses. The primary efficacy endpoint was clinical response at the follow-up visit for the clinically evaluable population. Clinical response, for both EOT and FU visits, was categorized as success (cure or improvement) or failure (including indeterminate results). […] Failure was defined as persistence of one or more local or systemic signs and symptoms of SSTI such that treatment with new or additional systemic antibacterial agents was required for the SSTI.
Microbiological outcome, a secondary efficacy variable, was assessed in the subpopulation of patients who had microbiologically documented SSTI (i.e., at least one identified baseline pathogen). A microbiologic response was assessed for each Gram-positive pathogen identified at baseline (i.e., eradication, presumed eradication, persistence, presumed persistence). For patients for whom follow-up cultures were not performed, the microbiologic responses for baseline pathogens were presumed on the basis of the clinical response. […] At both the EOT and FU visits, colonization and superinfection were assessed. […]

Streptococcus pyogenes = experiment: Dalbavancin MIC, baseline isolates of SSTI trial; format: cell-based; details: read-out: Dalbavancin MIC, Streptococcus pyogenes, MITT, two-dose group
[5] = Safety assessments in healthy subjects; details: single 1000 mg IV
Method: (§4) Adverse events were recorded and assessed for severity and relationship to study drug. Laboratory data (chemistry panel, CBC with differential, urinalysis) were collected and assessed for changes from baseline and out-of-range values. ECG, physical examination, and vital signs were obtained, and changes from baseline were assessed.

[6] = system: Miscellaneous Streptococcus and nontypeable strains; experiment: Dalbavancin MIC, baseline isolates of SSTI trial; format: cell-based; details: for Dalbavancin MIC, Miscellaneous Streptococcus and nontypeable strains: MITT
Gram-positive pathogen = experiment: SSTI trial: microbiologic response, all Gram-positive organisms; format: in vivo, human; details: single dose; EOT and FU, microbiologically-evaluable and MITT populations
Method: as §1, §2
Microbiological outcome, a secondary efficacy variable, was assessed in the subpopulation of patients who had microbiologically documented SSTI (i.e., at least one identified baseline pathogen). A microbiologic response was assessed for each Gram-positive pathogen identified at baseline (i.e., eradication, presumed eradication, persistence, presumed persistence). For patients for whom follow-up cultures were not performed, the microbiologic responses for baseline pathogens were presumed on the basis of the clinical response. Microbiologic response by patient at the EOT and FU visits was graded as success (i.e., all Gram-positive organisms eradicated or presumed eradicated) or failure (i.e., at least one Gram-positive organism persisted or presumed to have persisted, multiple pathogens with partial eradication). At both the EOT and FU visits, colonization and superinfection were assessed. […]

[7] = human, in vivo
Method: as §4

Rat albumin = Rat albumin (Rattus norvegicus, UniProt P02770); experiment: Protein binding by isothermal titration microcalorimetry; details: Apparent binding affinity Ka, pH 7.4, ± SD of fit
Chain of Rat albumin (P02770 25-608): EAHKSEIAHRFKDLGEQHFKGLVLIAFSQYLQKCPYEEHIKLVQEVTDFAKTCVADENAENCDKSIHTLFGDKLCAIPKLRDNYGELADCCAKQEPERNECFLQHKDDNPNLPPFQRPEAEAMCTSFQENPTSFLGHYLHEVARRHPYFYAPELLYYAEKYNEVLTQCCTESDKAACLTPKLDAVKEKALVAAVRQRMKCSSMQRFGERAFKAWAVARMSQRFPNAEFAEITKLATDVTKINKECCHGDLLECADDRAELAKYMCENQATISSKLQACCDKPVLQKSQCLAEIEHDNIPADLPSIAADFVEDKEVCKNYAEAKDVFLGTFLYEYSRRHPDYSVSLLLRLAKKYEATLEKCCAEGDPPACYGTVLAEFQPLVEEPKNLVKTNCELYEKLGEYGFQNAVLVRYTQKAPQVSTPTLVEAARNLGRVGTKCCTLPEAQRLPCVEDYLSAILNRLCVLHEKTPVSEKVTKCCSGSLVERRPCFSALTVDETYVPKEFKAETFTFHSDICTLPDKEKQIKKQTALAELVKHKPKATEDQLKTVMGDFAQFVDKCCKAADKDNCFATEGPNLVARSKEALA
Method: as §3

[8] = Rat quantitative tissue distribution (QTD) study; details: male rats, single IV infusion 20 mg/kg
Method: (§5) Excreta and more than 40 different tissues were collected through 70 days post-administration, and the tissue distribution and pharmacokinetics of drug-derived radioactivity were determined.
Rats (3 per time-point) were euthanized at 12, 24, 48, 72, 96, 120, 144, 168, 336, 840, 1176 and 1680 hours post dose for collection of blood, plasma, and tissues (including carcass). All samples were analyzed by LSC.
As part of the QTD studies, bile samples were collected from bile duct cannulated rats (4 animals) through 384 h (16 days) post-dose.

human α-glycoprotein = details: pH 7.4
Method: as §3

[9] = pH 7.4
Human albumin [10] = molecular target: T1, Human albumin; details: pH 7.4
Method: as §3

Dog albumin = Dog albumin (Canis lupus familiaris, UniProt P49822); experiment: Protein binding by isothermal titration microcalorimetry; details: Apparent binding affinity Ka, pH 7.4, ± SD of fit
Chain of Dog albumin (P49822 25-608): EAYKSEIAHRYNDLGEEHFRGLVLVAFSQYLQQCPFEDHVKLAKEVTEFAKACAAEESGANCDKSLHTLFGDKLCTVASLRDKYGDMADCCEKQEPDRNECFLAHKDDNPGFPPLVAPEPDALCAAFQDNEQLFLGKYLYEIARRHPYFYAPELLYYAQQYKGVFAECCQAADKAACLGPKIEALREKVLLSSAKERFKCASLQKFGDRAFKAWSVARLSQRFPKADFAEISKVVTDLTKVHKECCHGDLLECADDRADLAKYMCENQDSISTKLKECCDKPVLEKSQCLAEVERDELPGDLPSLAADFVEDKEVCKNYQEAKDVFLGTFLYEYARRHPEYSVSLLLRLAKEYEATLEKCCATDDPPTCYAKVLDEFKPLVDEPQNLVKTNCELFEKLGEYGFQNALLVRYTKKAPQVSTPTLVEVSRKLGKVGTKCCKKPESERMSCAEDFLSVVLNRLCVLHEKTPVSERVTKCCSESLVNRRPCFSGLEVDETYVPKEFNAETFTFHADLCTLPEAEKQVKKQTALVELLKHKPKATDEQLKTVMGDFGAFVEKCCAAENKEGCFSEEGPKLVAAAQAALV
Method: as §3

[11] = rat, in vivo
Method: as §5
Following dose administration, urine and feces were collected at 24 hour intervals to 14, 36, and 70 days after the dose (3 rats/final collection time). Water and methanol cage washes were also collected. Carcasses were analyzed at the end of the collection period. AU samples were analyzed for total radioactivity content by liquid scintillation counting (LSC).

[12] = two-dose 1000 mg IV day 1, 500 mg day 8

Chain of Bovine albumin (P02769 25-607): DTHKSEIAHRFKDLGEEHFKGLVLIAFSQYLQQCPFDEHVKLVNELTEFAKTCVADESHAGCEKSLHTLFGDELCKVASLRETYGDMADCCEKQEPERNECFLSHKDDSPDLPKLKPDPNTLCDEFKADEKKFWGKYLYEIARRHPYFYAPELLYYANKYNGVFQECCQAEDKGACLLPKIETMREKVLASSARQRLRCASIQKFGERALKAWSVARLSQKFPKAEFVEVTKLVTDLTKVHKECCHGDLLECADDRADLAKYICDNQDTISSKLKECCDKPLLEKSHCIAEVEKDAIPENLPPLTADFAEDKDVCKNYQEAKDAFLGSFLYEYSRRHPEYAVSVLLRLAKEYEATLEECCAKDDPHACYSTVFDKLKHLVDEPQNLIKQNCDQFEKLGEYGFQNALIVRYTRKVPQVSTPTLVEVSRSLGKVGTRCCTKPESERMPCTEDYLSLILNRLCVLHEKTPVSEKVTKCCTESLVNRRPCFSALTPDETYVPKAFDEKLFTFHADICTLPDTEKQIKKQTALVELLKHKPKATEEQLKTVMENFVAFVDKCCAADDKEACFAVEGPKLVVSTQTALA

For `CN[C@H]1C(=O)N[C@@H]2Cc3ccc(cc3)Oc3cc4cc(c3O[C@@H]3O[C@H](C(=O)O)[C@@H](O)[C@H](O)[C@H]3NC(=O)CCCCCCCCC(C)C)Oc3ccc(cc3Cl)[C@@H](O)[C@@H]3NC(=O)[C@H](NC(=O)[C@@H]4NC(=O)[C@@H](NC2=O)c2cc(cc(O)c2Cl)Oc2cc1ccc2O)c1ccc(O)c(c1)-c1c(O[C@H]2O[C@H](CO)[C@@H](O)[C@H](O)[C@@H]2O)cc(O)cc1[C@@H](C(=O)NCCCN(C)C)NC3=O` [Dalbavancin], which Kd (Bovine albumin) is on record?
Its Kd is 7.25 µM.

What about the MBC (bacteria) of the same compound?
Its MBC is 4 to 10 µg/mL (≈ 2200 to 5500 nM).

What about the “AE leading to discontinuation of study medication” value ([1]; human, in vivo) of the same compound?
The value was 0%.

And the “≧1 AE” value ([1]; human, in vivo)?
The value was 95%.

What about the “≧1 severe AE” value ([1]; human, in vivo) of the same compound?
Its value is 2 (10%).

And the Hepatotoxicity or nephrotoxicity ([1]; in vivo)?
Its Hepatotoxicity or nephrotoxicity is “no evidence that dalbavancin induces any degree of clinically significant hepatotoxicity or nephrotoxicity”.

What about the “Serious adverse events related to study drug” value ([1]; in vivo) of the same compound?
Its value is “no serious adverse events related to study drug treatment”.

What about the Tolerability ([1]; in vivo) of the same compound?
Its Tolerability is “well tolerated”.

And the “≧1 AE possibly/probably related to treatment” value ([1]; single-dose (N = 20))?
Its value is 55%.

What about the “≧1 AE possibly/probably related to treatment” value ([1]; two-dose (N = 21)) of the same compound?
The value was 48%.

And the “Dalbavancin MIC range, All S. aureus” value (S. aureus; standard of care group)?
Its value is 10 (0.016-0.25) mg/L.

What about the “Dalbavancin MIC, All S. aureus” value (S. aureus; two-dose group) of the same compound?
Its value is 11 (0.12) mg/L.

What about the “Clinical success rate, patients with deep or complicated SSTI at baseline” value ([2]; single-dose 1100 mg IV day 1) of the same compound?
Its value is 58.3%.

And the “Clinical success rate, patients with deep or complicated SSTI at baseline” value [2, 12]?
Its value is 93.8%.

And the Kd (Human albumin [3]; 25° C.)?
Its Kd is 7.41 µM.

What about the Kd (Human albumin [3]; 37° C.) of the same compound?
Its Kd is 7.52 µM.

And the “Clinical success rate at FU, MITT patients with MRSA” value ([4]; single-dose 1100 mg IV day 1)?
The value was 50%.

What about the “Clinical success rate at FU, MITT patients with MRSA” value [4, 12] of the same compound?
Its value is 80%.

What about the MIC (Streptococcus pyogenes) of the same compound?
Its MIC is 0.016 µg/mL (≈ 8.81 nM).

And the “Deaths or serious adverse events” value [5]?
Its value is “No subject deaths or serious adverse events”.

And the “Dalbavancin MIC, Miscellaneous Streptococcus and nontypeable strains” value ([6]; standard of care group)?
Its value is 4 (0.016) mg/L.

And the “Dalbavancin MIC, Miscellaneous Streptococcus and nontypeable strains” value ([6]; two-dose group)?
Its value is 2 (0.016) mg/L.

And the MIC ([6]; Streptococcus, read-out: Dalbavancin MIC, Miscellaneous Streptococcus and nontypeable strains, MITT, single dose group)?
Its MIC is 0.016 µg/mL (≈ 8.81 nM).

And the “Microbiologic success rates at both visits (summary)” value (Gram-positive pathogen)?
The value was < 40%.

And the “Eosinophilia, AE possibly related to study medication” value [7]?
Its value is 500 µL⁻¹.

What about the “Intensity of reported AEs” value [7] of the same compound?
Its value is “all of mild intensity”.

What about the Kd (Rat albumin; 25° C.) of the same compound?
Its Kd is 3.23 µM.

What about the Kd (Rat albumin; 37° C.) of the same compound?
Its Kd is 3.57 µM.

And the “Skin concentrations of drug-derived radioactivity relative to plasma” value [8]?
The value was “as high as or higher than in plasma”.

What about the “Calculated percent Binding, Human α-glycoprotein” value (human α-glycoprotein; 1 μM) of the same compound?
The value was 73.0%.

And the “Calculated percent Binding, Human α-glycoprotein” value (human α-glycoprotein; 10 μM)?
Its value is 68.2%.

And the “Calculated percent Binding, Human α-glycoprotein” value (human α-glycoprotein; 100 μM)?
The value was 26.2%.

And the “Calculated percent Binding, Human α-glycoprotein” value (human α-glycoprotein; 165 μM)?
Its value is 16.9%.

What about the “Calculated percent Binding, Human α-glycoprotein” value (human α-glycoprotein; 250 μM) of the same compound?
Its value is 11.4%.

What about the “Calculated percent Binding, Human α-glycoprotein” value (human α-glycoprotein; 500 μM) of the same compound?
Its value is 5.9%.

And the “Solubility in the presence of HSA” value [9]?
The value was “significantly increased”.

What about the “Calculated percent Binding, Human albumin” value (Human albumin [10]; 1 μM) of the same compound?
Its value is 98.8%.

And the “Calculated percent Binding, Human albumin” value (Human albumin [10]; 10 μM)?
Its value is 98.8%.

And the “Calculated percent Binding, Human albumin” value (Human albumin [10]; 100 μM)?
Its value is 98.7%.

What about the “Calculated percent Binding, Human albumin” value (Human albumin [10]; 165 μM) of the same compound?
Its value is 98.6%.

And the “Calculated percent Binding, Human albumin” value (Human albumin [10]; 250 μM)?
The value was 98.5%.

What about the “Calculated percent Binding, Human albumin” value (Human albumin [10]; 500 μM) of the same compound?
Its value is 98.0%.

And the Kd (Dog albumin; 25° C.)?
Its Kd is 16.1 µM.

And the Kd (Dog albumin; 37° C.)?
Its Kd is 20 µM.

And the “Dose remaining in the carcass” value ([11]; male, Sprague-Dawley, 1680 h)?
Its value is 4.5%.

What about the “Radioactivity administered eliminated in urine and feces within the first week” value ([11]; iv, 20 mg/kg) of the same compound?
The value was “Approximately half”.

And the “Share of excreted radioactivity eliminated in feces” value ([11]; iv, 20 mg/kg)?
Its value is “⅓”.

And the “Share of excreted radioactivity eliminated in urine” value ([11]; iv, 20 mg/kg)?
The value was “⅔”.
